In patent EP0840781B1, “METHODS AND DEVICES FOR THE REMOVAL OF PSORALENS FROM BLOOD PRODUCTS” (Cerus Corporation, priority 1995, dated 1996):
Read-outs that look alike come from different tables or passages of the source.

What was measured:
[1] = tested on: H9 cells chronically infected with HIVIIIB; test: Inactivation of cell-associated HIV in platelet concentrate, HIV microplaque assay; assay type: cell-based; conditions: 150 µM in platelet concentrate; for logs of HIV inactivated (cell-associated): 3 Joules/cm^2, starting log titer 6.1 (Compound 2) or 6.6 (Compound 18); for log inactivation of HIV, dark control: no UVA
Method: H9 cells chronically infected with HIVIIIB were used. (H9/HTLV-III-B NIH 1983 Cat.#400). Cultures of these cells were maintained in high glucose Dulbecco Modified Eagle Medium supplemented with 2 mM L-glutamine, 200 u/mL penicillin, 200 µg/ml streptomycin, and 9% fetal bovine serum (Intergen Company, Purchase, N.Y.) For maintenance, the culture was split once a week, to a density of 3 x 10^5 to 4 x 10^5 cells/ml and about four days after splitting, 3.3% sodium bicarbonate was added as needed. For the inactivation procedure, the cells were used three days after they were split. They were pelleted from their culture medium at 400 g x 10 minutes, the supernatant was discarded, and the cells were resuspended in one to five day old human platelet concentrate (PC) (pH 7.5-6.5), to a concentration of 2 x 10^6 cells/ml. Aliquots of the PC-infected cell suspension were made for psoralen free dark controls, for psoralen free UVA only controls, for psoralen dark controls, and for the psoralen plus UVA experimental sample. Concentrated filter-sterilized stock solutions of each psoralen in water were diluted into the appropriate aliquots to yield a final concentration of 150 µM. […] After an equilibration period of thirty minutes at room temperature, 0.5 ml of each of the dark controls was placed in a cryovial and stored in the dark at -80° C. For UVA illumination, 8 ml of the psoralen free aliquot and 8 ml of each psoralen containing aliquot were introduced into a modified F1 20 Teflon™ bag (modified to be 92 cm^2 total surface area. The West Co., Phoenixvill, PA) via a plastic disposable 10 ml syringe attached to one of the polypropylne ports on the bag. This gave an average path length of 0.17 cm. The bags were then illuminated for a total exposure of 3 Joules/cm^2 in the device described in Example 1, above, attached to a circulating refrigerating water bath set at 4° C. which maintains the temperature in the bag at approximately 22-25° C. During exposure, the device was shaken on a platelet shaker (Helmer Labs, Noblesville, IN). After exposure, the contents of the bags were withdrawn by a fresh syringe through the remaining unused port on the bag, and placed in cryovials for storage in the dark at […] until analysis.
Clot removal from each sample was performed before plating.

HIV-1 = conditions: 1 Minute Irradiation
Method: Pathogen inactivation efficiency of several compounds described herein was evaluated by examining the ability of the compounds to inactivate cell-free virus (HIV). Inactivation of cell-free HIV was performed as follows.
As in the R17 assay, small aliquots of the compounds listed in TABLES 10 and 11, below, at the concentrations listed in the table, were added to stock HIV-1 to a total of 0.5 mL. The stock HIV (10^5 - 10^7 plaque forming units/mL) was in DMEM/15% FBS. […] Controls included HIV-I stock only, HIV-1 plus UVA only, and HIV-I plus the highest concentration of each psoralen tested, with no UVA. Post irradiation. all samples were store frozen at -70° C until assayed for infectivity by a microtiter plaque assay. Aliquots for measurement of residual HIV infectivity in the samples treated with a compound of the present invention were withdrawn and cultured.
Residual HIV infectivity was assayed using an MT-2 infectivity assay. […] The assay medium was 85% DMEM (with a high glucose concentration) containing 100 µg of streptomycin, 100 U of penicillin, 50 µg of gentamicin, and 1 µg of amphotericin B per mL, 15% FBS and 2 µg of Polybrene (Sigma Chemical Co., St. Louis, Mo.) per mL. Test and control samples from the inactivation procedure were diluted in 50% assay medium and 50% normal human pooled plasma. The samples were serially diluted directly in 96-well plates (Coming Glass Works, Coming, N.Y.). The plates were mixed on an oscillatory shaker for 30 seconds and incubated at 37°C in a 5% CO2 atmosphere for 1 to 18 hours. […] After an additional 1 hour of incubation at 37°C in 5% CO2, 0.075 mL of assay medium containing 1.6% SeaPlaque agarose (FMC Bioproducts, Rockland, Maine) and prewarmed to 38.5°C was added to each well. The plates were kept at 37°C for a few minutes until several plates had accumulated and then centrifuged in plate carriers at 600 x g for 20 minutes in a centrifuge precooled to 10°C. In the centrifuge, cell monolayers formed prior to gelling of the agarose layer. The plates were incubated for 5 days at 37°C in 5% CO2 and stained by the addition of 0.05 mL of 50 µg/mL propidium iodide (Sigma Chemical Co.) in phosphate-buffered saline (pH 7.4) to each well. After 24 to 48 hours, the red fluorescence-stained microplaques were visualized by placing the plates on an 8,000 µW/cm^2 304 nm UV light box (Fotodyne, Inc., New Berlin, Wis.). The plaques were counted at a magnification of x20 to x25 through a stereomicroscope.

[2] = tested on: Duck Hepatitis B Virus (DHBV); test: Inactivation of Duck Hepatitis B Virus in platelet concentrate, read out by PCR amplification; assay type: biochemical; conditions: 5 J/cm^2 UVA
Method: This example describes the protocol for inactivation of Duck Hepatitis B Virus (DHBV), a model for Hepatitis B Virus, using compounds described herein.
DHBV in duck yolk was added to platelet concentrate (PC) to a final concentration of 2 x 10^7 particles per mL and mixed by gentle rocking for ≥15 min. Psoralens S-70, S-59 and AMT were added to 3 mL aliquots of PC in a Teflon™ mini-bag at concentrations of […]. Samples, including controls without added psoralen, were irradiated with 5 J/cm^2 UVA, with mixing at 1 J/cm^2 increments. After irradiation, leukocytes and platelets were separated from virus by centrifugation. The supernatant containing DHBV was digested overnight with 50 µg/mL proteinase K in a buffer containing 0.5% sodium dodecyl sulphate, 20 mM Tris buffer, pH 8.0, and 5 mM EDTA at 55°C. Samples were extracted with phenolchloroform and chloroform, followed by ethanol precipitation. Purified DNA was then used in PCR amplification reactions with a starting input of 10^6 DHBV genomes from each sample. PCR amplicons were generated using primers pairs DCD03/DCD05 (127 bp), DCD03/DCD06 (327 bp) and DCD03/DCD07 (1072 bp). PCR was performed in a standard PCR buffer containing 0.2 mM each deoxyribonucleoside 5'-triphosphates (dATP, dGTP, dCTP, and dTTP), […] each primer, and 0.5 units Taq polymerase per […]. 30 cycles of amplification were performed with the following thermal profile: 95°C 30 sec, 60° C 30 sec, 72° C 1 min. The amplification was followed by a 7 min incubation at 72° C to yield full length products. [[…]-^32P] dCTP was added at an amount of […] per […] in order to detect and quantify the resulting products. Products were separated by electrophoresis on denaturing polyacrylamide slab gels and counted. The absence of signal in a given reaction was taken to indicate effective inactivation of DHBV.

platelet concentrate = test: pO2, pCO2 and bicarbonate concentration of platelet concentrate; assay type: cell-based, human; conditions: T = test unit (150 µM S-59, 3 Joules/cm^2 UVA, RD 8 hours on day 1)
Method: In addition to the data summarized in Table E, measurements of pH, pO2, and pCO2 were taken over a five-day storage period. No significant differences between the treated and control units were observed. Finally, it should be noted that these experiments were performed with standard Amberlite™ resins (i.e., resins which were not treated by Supelco, Inc.).
(§1) For the evaluation of in vitro platelet function, platelet samples were withdrawn from both the control and test units before treatment and after treatment on days 2, 5, and 7. The following parameters were analyzed: pH, pO2, pCO2, bicarbonate concentration, platelet count, morphology, aggregation, platelet shape change, hypotonic shock response, lactate production, glucose consumption, ATP secretion, p-selectin expression, and microvesicle formation. Several of these assays, including pH, morphology score, platelet shape change, and hypotonic shock response, have been reported in the literature to correlate with in- vivo post-transfusion recovery and survival. The Student's paired t-test was used for statistical analysis.

platelets = test: Microvesicle formation of platelets; assay type: cell-based, human; conditions: T = test unit (150 µM S-59, 3 Joules/cm^2 UVA, RD 8 hours on day 1)
Method: as §1

[3] = 16 µM, HIV Starting Titer Approximately 5.4 Logs (Table 11)
[4] = 32 µM, HIV Starting Titer Approximately 5.4 Logs (Table 11)
[5] = 64 µM, HIV Starting Titer Approximately 5.4 Logs (Table 11)
[6] = 16 µM, HIV Starting Titer Approximately 5 Logs (Table 10)
[7] = 32 µM, HIV Starting Titer Approximately 5 Logs (Table 10)
[8] = 64 µM, HIV Starting Titer Approximately 5 Logs (Table 10)

Structure (SMILES)	logs of HIV inactivated (cell-associated) [1] [logs]	log inactivation of HIV, dark control [1] [logs]	HIV Log Kill (HIV-1; [3])	HIV Log Kill (HIV-1; [4])	HIV Log Kill (HIV-1; [5])	HIV Log Kill (HIV-1; [6])	HIV Log Kill (HIV-1; [7])	HIV Log Kill (HIV-1; [8])	further results
Cc1cc(=O)oc2c(C)c3oc(COCCN)c(C)c3cc12 [Compound 18, 5'-(4-amino-2-oxa)butyl-4,4',8-trimethylpsoralen]	> 7.2	0	1.0	1.0	3.1	–	–	–	–
Cc1oc2c(C)c3oc(=O)cc(C)c3cc2c1CN [AMT, 4'-Aminomethyl-4,5',8-trimethylpsoralen, reference compound]	–	–	–	–	–	1.4	–	–	PCR amplification of the 1072 bp amplicon of DHBV [2]: a signal could be detected; PCR amplification of the 1072 bp amplicon of DHBV ([2]; 70 and 100 mM in PC): inhibited PCR amplification
Cc1oc2c(C)c3oc(=O)cc(C)c3cc2c1CNCCCCN [Compound 6, 4'-(6-amino-2-aza)hexyl4,5',8-trimethylpsoralen]	–	–	2.1	3.2	>2.8	2.0	3.1	>3.8	–
Cc1oc2c(C)c3oc(=O)cc(C)c3cc2c1COCCN [Compound 2, 4'-(4-amino-2-oxa)butyl-4,5',8-trimethylpsoralen]	> 6.7	0	–	–	–	1.4	3.8	>4.5	PCR of the 1072 bp amplicon of DHBV ([2]; all concentrations (35, 70, and 100 mM) in PC): complete inhibition of PCR; inhibition of PCR of the smaller amplicons (127 bp, 327 bp) of DHBV ([2]; same concentrations as AMT): better than did AMT; Bicarbonate (platelet concentrate; Day 2): 6.3 ± 0.3 mM; pCO2 (platelet concentrate; Day 2): 29.2±3.8 mm Hg; pO2 (platelet concentrate; Day 2): 68.3±19.4 mm Hg; Bicarbonate (platelet concentrate; Day 5): 4.8 ± 0.5 mM; pCO2 (platelet concentrate; Day 5): 23.7±3.5 mm Hg; pO2 (platelet concentrate; Day 5): 84.8±22.5 mm Hg; Bicarbonate (platelet concentrate; Day 7): 4.2 ± 0.7 mM; pCO2 (platelet concentrate; Day 7): 20.7±2.4 mm Hg; pO2 (platelet concentrate; Day 7): 88.8±20.2 mm Hg; (%) Microvesicle Formation (platelets; Day 2): 0.9±0.2%; (%) Microvesicle Formation (platelets; Day 5): 0.8±0.2%; (%) Microvesicle Formation (platelets; Day 7): 1.7±1.7%
